Data published in US20260295053A1, “COMPOUNDS FOR DEGRADATION AND INHIBITION OF KRAS (G12D) PROTEIN” (Shenzhen Ionova Life Science Co., Ltd., priority 2023, published 2026).

Assays:
[1] = system: AsPC-1 cells; assay: AsPC-1 cell proliferation assay (CellTiter Glo); type: cell-based; details: Homo sapiens, ASPC1, 144 h, 6 days
How it was run: (§1)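 AsPC-1 cells were seeded at 22,000/well for degradation and 3,500/well for proliferation. Compounds in 1:3 dilutions ([…] to 1.5 nM final) ran 24 h for degradation, read by in-cell immunofluorescence of KRAS G12D normalised to β-actin, and 6 days for proliferation (CellTiter Glo luminescence). DC50/IC50 came from dose-response fits.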

[2] = biological target: T1, KRAS (G12D) (Homo sapiens, UniProt P01116, G12D); assay: KRAS (G12D) cellular degradation assay in AsPC-1 cells; type: cell-based; details: 24 hours, antibody fluorescence (Odyssey CLX), DC50 half-maximal degradation concentration
T1 construct: in-cell western with KRAS G12D antibody after 24 h
How it was run: as §1

T1 sequence (P01116 1-188 isoform P01116-2 G12D): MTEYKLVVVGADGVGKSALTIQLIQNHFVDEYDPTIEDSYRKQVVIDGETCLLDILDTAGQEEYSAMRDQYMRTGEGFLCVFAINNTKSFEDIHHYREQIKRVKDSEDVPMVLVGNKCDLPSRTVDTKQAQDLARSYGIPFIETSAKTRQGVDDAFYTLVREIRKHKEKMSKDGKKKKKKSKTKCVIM

Row | IC50 [1] [nM] | DC50 [2] [nM] | SMILES
1 | < 10 | < 10 | CCn1nccc1-c1ccc([C@H](CO)NC(=O)[C@@H]2C[C@@H](O)CN2C(=O)[C@H](C(C)C)n2cc(-c3ccc(COc4c(-c5c(C)c(F)cc6[nH]ncc56)c(C5CC5)cc5c(N6CCCNCC6)nc(OC[C@@H]6CCCO6)nc45)cc3)nn2)cc1 [Example 207, (2S,4R)-1-((2S)-2-(4-(4-(((6-cyclopropyl-4-(1,4-diazepan-1-yl)-7-(6-fluoro-5-methyl-1H-indazol-4-yl)-2-(((S)-tetrahydrofuran-2-yl)methoxy)quinazolin-8-yl)oxy)methyl)phenyl)-1H-1,2,3-triazol-1-yl)-3-methylbutanoyl)-N—((R)-1-(4-(1-ethyl-1H-pyrazol-5-yl)phenyl)-2-hydroxyethyl)-4-hydroxypyrrolidine-2-carboxamide]
2 | < 10 | 10 to 100 | CO[C@@H](C)COc1nc(N2C[C@@H]3C[C@H]2CN3)c2cc(C3CC3)c(-c3c(C)c(F)cc4[nH]ncc34)c(OCc3ccc(-c4cn([C@H](C(=O)N5C[C@H](O)C[C@H]5C(=O)N[C@H](C#Cc5cccc(Cl)c5F)CO)C(C)C)nn4)cc3)c2n1 [Example 78, (2S,4R)-1-((2S)-2-(4-(4-(((4-((1S,4S)-2,5-diazabicyclo[2.2.1]heptan-2-yl)-6-cyclopropyl-7-(6-fluoro-5-methyl-1H-indazol-4-yl)-2-((S)-2-methoxypropoxy)quinazolin-8-yl)oxy)methyl)phenyl)-1H-1,2,3-triazol-1-yl)-3-methylbutanoyl)-N—((R)-4-(3-chloro-2-fluorophenyl)-1-hydroxybut-3-yn-2-yl)-4-hydroxypyrrolidine-2-carboxamide]
3 | 10 to 100 | 10 to 100 | CO[C@@H](C)COc1nc(N2C[C@H]3C[C@@H]2CN3)c2cc(C3CC3)c(-c3c(C)c(F)cc4[nH]ncc34)c(OCc3ccc(-c4cn([C@H](C(=O)N5C[C@H](O)C[C@H]5C(=O)NCc5ccc(-c6scnc6C)cc5)C(C)C)nn4)cc3)c2n1 (single isomer, unassigned) [Example 11A]
4 | < 10 | 10 to 100 | CCc1ncccc1C#C[C@H](CO)NC(=O)[C@@H]1C[C@@H](O)CN1C(=O)[C@H](C(C)C)n1cc(-c2ccc(COc3c(-c4c(C)c(F)cc5[nH]ncc45)c(C4CC4)cc4c(N5C[C@@H]6C[C@H]5CN6)nc(OC[C@H](C)OC)nc34)cc2)nn1 [Example 46, (2S,4R)-1-((2S)-2-(4-(4-(((4-((1S,4S)-2,5-diazabicyclo[2.2.1]heptan-2-yl)-6-cyclopropyl-7-(6-fluoro-5-methyl-1H-indazol-4-yl)-2-((S)-2-methoxypropoxy)quinazolin-8-yl)oxy)methyl)phenyl)-1H-1,2,3-triazol-1-yl)-3-methylbutanoyl)-N—((R)-4-(2-ethylpyridin-3-yl)-1-hydroxybut-3-yn-2-yl)-4-hydroxypyrrolidine-2-carboxamide]
5 | < 10 | < 10 | Cc1ncsc1C#C[C@H](CO)NC(=O)[C@@H]1C[C@@H](O)CN1C(=O)[C@H](C(C)C)n1cc(-c2ccc(COc3c(-c4c(C)c(F)cc5[nH]ncc45)c(C4CC4)cc4c(N5C[C@@H]6C[C@H]5CN6)nc(OC5CCOCC5)nc34)cc2)nn1 [Example 59, (2S,4R)-1-((2S)-2-(4-(4-(((4-((1S,4S)-2,5-diazabicyclo[2.2.1]heptan-2-yl)-6-cyclopropyl-7-(6-fluoro-5-methyl-1H-indazol-4-yl)-2-((tetrahydro-2H-pyran-4-yl)oxy)quinazolin-8-yl)oxy)methyl)phenyl)-1H-1,2,3-triazol-1-yl)-3-methylbutanoyl)-4-hydroxy-N—((R)-1-hydroxy-4-(4-methylthiazol-5-yl)but-3-yn-2-yl)pyrrolidine-2-carboxamide]
6 | < 10 | < 10 | CO[C@@H](C)COc1nc(N2C[C@@H]3C[C@H]2CN3)c2cc(C3CC3)c(-c3c(C)c(F)cc4[nH]ncc34)c(OCc3ccc(-c4cn([C@H](C(=O)N5C[C@H](O)C[C@H]5C(=O)N[C@H](C#Cc5ccc6nc(N)sc6c5)CO)C(C)C)nn4)cc3)c2n1 [Example 111, (2S,4R)-1-((2S)-2-(4-(4-(((4-((1S,4S)-2,5-diazabicyclo[2.2.1]heptan-2-yl)-6-cyclopropyl-7-(6-fluoro-5-methyl-1H-indazol-4-yl)-2-((S)-2-methoxypropoxy)quinazolin-8-yl)oxy)methyl)phenyl)-1H-1,2,3-triazol-1-yl)-3-methylbutanoyl)-N—((R)-4-(2-aminobenzo[d]thiazol-6-yl)-1-hydroxybut-3-yn-2-yl)-4-hydroxypyrrolidine-2-carboxamide]
7 | < 10 | < 10 | CCn1nccc1-c1ccc([C@H](CO)NC(=O)[C@@H]2C[C@@H](O)CN2C(=O)[C@H](C(C)C)n2cc(-c3ccc(COc4c(-c5c(C)c(F)cc6[nH]ncc56)c(C5CC5)cc5c(N6C[C@@H]7C[C@H]6CN7)nc(OC6CC7(CCOC7)C6)nc45)cc3)nn2)cc1 (stereo partly drawn) [Example 101, (2S,4R)-1-((2S)-2-(4-(4-(((2-((6-oxaspiro[3.4]octan-2-yl)oxy)-4-((1S,4S)-2,5-diazabicyclo[2.2.1]heptan-2-yl)-6-cyclopropyl-7-(6-fluoro-5-methyl-1H-indazol-4-yl)quinazolin-8-yl)oxy)methyl)phenyl)-1H-1,2,3-triazol-1-yl)-3-methylbutanoyl)-N—((R)-1-(4-(1-ethyl-1H-pyrazol-5-yl)phenyl)-2-hydroxyethyl)-4-hydroxypyrrolidine-2-carboxamide]

Row | SMILES | IC50 [1] [nM] | DC50 [2] [nM]
8 | CCn1nccc1-c1ccc([C@@H](NC(=O)[C@@H]2C[C@@H](O)CN2C(=O)[C@H](C(C)C)n2cc(-c3ccc(COc4c(-c5c(C)c(F)cc6[nH]ncc56)c(C5CC5)cc5c(N6C[C@@H]7C[C@H]6CN7)nc(O[C@H]6C[C@H](OC)C6)nc45)cc3)nn2)[C@H](C)O)cc1 [Example 109, (2S,4R)-1-((2S)-2-(4-(4-(((4-((1S,4S)-2,5-diazabicyclo[2.2.1]heptan-2-yl)-6-cyclopropyl-7-(6-fluoro-5-methyl-1H-indazol-4-yl)-2-((1r,3S)-3-methoxycyclobutoxy)quinazolin-8-yl)oxy)methyl)phenyl)-1H-1,2,3-triazol-1-yl)-3-methylbutanoyl)-N-((1R,2S)-1-(4-(1-ethyl-1H-pyrazol-5-yl)phenyl)-2-hydroxypropyl)-4-hydroxypyrrolidine-2-carboxamide] | < 10 | < 10
9 | CO[C@H]1C[C@@H](Oc2nc(N3C[C@@H]4C[C@H]3CN4)c3cc(C4CC4)c(-c4c(C)c(F)cc5[nH]ncc45)c(OCc4ccc(-c5cn([C@H](C(=O)N6C[C@H](O)C[C@H]6C(=O)N[C@H](c6ccc(-c7scnc7C)cc6)[C@H](C)O)C(C)C)nn5)cc4)c3n2)C1 [Example 135, (2S,4R)-1-((2S)-2-(4-(4-(((4-((1S,4S)-2,5-diazabicyclo[2.2.1]heptan-2-yl)-6-cyclopropyl-7-(6-fluoro-5-methyl-1H-indazol-4-yl)-2-((1s,3R)-3-methoxycyclobutoxy)quinazolin-8-yl)oxy)methyl)phenyl)-1H-1,2,3-triazol-1-yl)-3-methylbutanoyl)-4-hydroxy-N-((1R,2S)-2-hydroxy-1-(4-(4-methylthiazol-5-yl)phenyl)propyl)purrolidine-2-carboxcamide] | < 10 | < 10
10 | CCn1nccc1-c1ccc([C@@H](NC(=O)[C@@H]2C[C@@H](O)CN2C(=O)[C@H](C(C)C)n2cc(-c3ccc(COc4c(-c5c(C)c(F)cc6[nH]ncc56)c(C5CC5)cc5c(N6C[C@@H]7C[C@H]6CN7)nc(O[C@H]6C[C@H](OC)C6)nc45)cc3)nn2)[C@H](C)O)cn1 [Example 193, (2S,4R)-1-((2S)-2-(4-(4-(((4-((1S,4S)-2,5-diazabicyclo[2.2.1]heptan-2-yl)-6-cyclopropyl-7-(6-fluoro-5-methyl-1H-indazol-4-yl)-2-((1r,3S)-3-methoxycyclobutoxy)quinazolin-8-yl)oxy)methyl)phenyl)-1H-1,2,3-triazol-1-yl)-3-methylbutanoyl)-N-((1R,2S)-1-(6-(1-ethyl-1H-pyrazol-5-yl)pyridin-3-yl)-2-hydroxypropyl)-4-hydroxypyrrolidine-2-carboxamide] | < 10 | 10 to 100
11 | CCn1nccc1-c1ccc([C@H](CO)NC(=O)[C@@H]2C[C@@H](O)CN2C(=O)[C@H](C(C)C)n2cc(-c3ccc(COc4c(-c5c(C)c(F)cc6[nH]ncc56)c(C5CC5)cc5c(N(C)[C@@H]6CCNC6)nc(O[C@H]6C[C@H](OC)C6)nc45)cc3)nn2)cc1 [Example 205, (2S,4R)-1-((2S)-2-(4-(4-(((6-cyclopropyl-7-(6-fluoro-5-methyl-1H-indazol-4-yl)-2-((1r,3R)-3-methoxycyclobutoxy)-4-(methyl((R)-pyrrolidin-3-yl)amino)quinazolin-8-yl)oxy)methyl)phenyl)-1H-1,2,3-triazol-1-yl)-3-methylbutanoyl)-N—((R)-1-(4-(1-ethyl-1H-pyrazol-5-yl)phenyl)-2-hydroxyethyl)-4-hydroxypyrrolidine-2-carboxamide] | < 10 | < 10
12 | CCn1nccc1-c1ccc([C@@H](NC(=O)[C@@H]2C[C@@H](O)CN2C(=O)[C@H](C(C)C)n2cc(-c3ccc(COc4c(-c5c(C)c(F)cc6[nH]ncc56)c(C5CC5)cc5c(N(C)[C@H]6CCNC6)nc(O[C@H]6C[C@H](OC)C6)nc45)cc3)nn2)[C@H](C)O)c2c1CC2 [Example 173, (2S,4R)-1-((2S)-2-(4-(4-(((6-cyclopropyl-7-(6-fluoro-5-methyl-1H-indazol-4-yl)-2-((1r,3S)-3-methoxycyclobutoxy)-4-(methyl((S)-pyrrolidin-3-yl)amino)quinazolin-8-yl)oxy)methyl)phenyl)-1H-1,2,3-triazol-1-yl)-3-methylbutanoyl)-N-((1R,2S)-1-(5-(1-ethyl-1H-pyrazol-5-yl)bicyclo[4.2.0]octa-1(6),2,4-trien-2-yl)-2-hydroxypropyl)-4-hydroxypyrrolidine-2-carboxamide] | < 10 | < 10
